Consider 13 compounds from PMC6801405, “Discovery of 3-Arylquinoxaline Derivatives as Potential Anti-Dengue Virus Agents” (International Journal of Molecular Sciences, 2019).

For data set [1], the system named is DENV2. As to conditions: DENV2 in VERO-B cells; cited from earlier work.
The test system of data set [2] is DENV. Set-up: method as in PMID 27750144. As to conditions: against DENV; cited from earlier work.
The test system of data set [3] is DENV-2. Set-up: method as in PMID 29031073. The settings on record: cited from earlier work; for EC50: anti-DENV-2 activity.
The subject of data set [4] is DENV2. As to the kind of experiment: microbe, parasite or virus in culture. It is filed as cell-based, dengue virus. As to conditions: for anti-DENV activity in words: >32% inhibition of DENV-2 at 10 μM considered as active; for SI (selectivity index, CC50/EC50): CC50 Huh-7 / EC50 DENV; for inhibition at 1 µM / inhibition at 10 µM / EC50: Dengue virus; for inhibition at 1 µM / inhibition at 10 µM: DENV2, 72 h; for EC50: DENV2, DENV replication, read-out: EC50 (concentration resulting in a 50% inhibition in virus production).
Description: Anti-DENV activities were determined by firefly luciferase activity.
Huh-7-DV-Fluc cells were seeded in 24-well plates at a density of 2 × 10^4 cells per well, and treated with the 3-arylquinoxaline compounds at two concentrations (1 and 10 μM) or 0.1% DMSO as control. After three days of incubation, the luciferase activity assay was performed using the Bright-Glo Luciferase assay system (Promega, Madison, WI, USA) according to the manufacturer’s instructions.

The nature of data set [5]: Cytotoxicity assay (XTT method). Type of data set: cell-based, Human. The settings on record: human, mean ± SD; for viability at 72 h, 20 µM / viability at 72 h, 200 µM: Huh-7 cells, XTT; for viability at 72 h, 20 µM: read-out: Huh-7 Cell % viability at 20 μM; for viability at 72 h, 200 µM: read-out: Huh-7 Cell % viability at 200 μM; for CC50 at 72 h: uninfected Huh-7 cells, read-out: CC50 (concentration causing a 50% growth inhibition of uninfected Huh-7 cells). The method, then:
(§1) For cytotoxicity tests, run in parallel with antiviral assays, plates at an initial density of 5 × 10^3 cells/well were treated with or without serial dilutions of test compounds. Cell viability was determined after 72 h at 37 °C in a humidified CO2 (5%) atmosphere by the (2,3-bis[2-methyloxy-4-nitro-5-sulfophenyl]-2H-tetrazolium-5-carboxanilide) (XTT) method.

The test system of data set [6] is Huh-7 cells. Kind of data set: Cytotoxicity assay (XTT method). Type of data set: cell-based, Human. As to conditions: Huh-7 cells. The method, then:
as §1
A general note: Tetrazolium assays rely on reduction of a dye to a coloured formazan, in cell work by metabolically active cells.

In data set [7] the test system is DENV2. Set-up: method as in PMID 29031073. The settings on record: cited from earlier work.
The test system of data set [8] is Huh-7 cells. Set-up: method as in PMID 29031073. The settings on record: cited from earlier work.
Where [9] appears, read: 10 μM, Huh-7-DV-Fluc cells, three days, mean ± SD.
The mark [10] stands for this setting: Huh-7-DV-Fluc cells, three days, mean ± SD.

Like-named read-outs stand apart in the source and are kept apart here.

Regarding `O=C(NCc1ccc(-c2ccncc2)cc1)c1nccnc1C(=O)Nc1ccc(F)cc1` [Compound 1, N^2-(4-fluorophenyl)-N^3-[4-(pyridin-4-yl)benzyl]pyrazine-2,3-dicarboxamide], the EC50 in data set [1] was 0.93 µM.
Take `Cc1ccc(Cc2nc(Cc3ccc(C)cc3-c3cc(C)n[nH]3)c3ccccc3n2)cc1` [Compound 2, 4-[4-methyl-2-(3-methyl-1H-pyrazol-5-yl)benzyl)-2-(4-methylbenzyl)quinazoline]: in data set [2], the EC50 is 2.6 µM.
With `COc1ccc(-c2cc(-c3ccc4cc(F)ccc4n3)n(-c3ccc(S(N)(=O)=O)cc3)n2)cc1` [Compound 5, 4-[5-(6-fluoroquinolin-2-yl)-3-(4-methoxyphenyl)-1H-pyrazol-1-yl]benzenesulfonamide], in data set [3], the EC50 is 0.81 µM and the “fold more active anti-DENV-2 activity than ribavirin” value was “approximately 10 fold”.
As to `COc1ccc(C(=O)c2nc3ccccc3nc2-c2ccccc2)cc1` [Compound 21b, (4-Methoxyphenyl)(3-phenylquinoxalin-2-yl)methanone], the melting point (commonly the temperature of the solid-liquid transition) fell in the range of 130 to 132.4 °C. In addition, the “anti-DENV activity in words” value in [4] (10 μM) is “highly active”. Besides, in data set [4] (setting [9]), the “DENV2 % Inhibition at 10 μM” value worked out at 51.85 ± 3.52% and the inhibition (as a rule, the drop in the measured response relative to a control, in per cent) at 10 µM was 51%. For the same compound, the “SI (selectivity index, CC50/EC50)” value in data set [4] is on record as over 61.54. This compound also showed an inhibition at 1 µM in data set [4] (setting [10]) of 42.8 ± 5.13%. Moreover, the EC50 in data set [4] (mean ± SD) was 3.25 ± 0.89 µM. For the same compound, in data set [5], the viability – broadly, a read-out of living cells in per cent, often relative to untreated cells – at 72 h, 20 µM stood at 106 ± 3.12%; the viability at 72 h, 200 µM was 95.1 ± 4.32%; the CC50 at 72 h is over 200 µM. Further, in [6], the cytotoxicity in words result is “non-cytotoxic”.
In the case of `O=C(c1ccccc1)c1nc2ccccc2nc1-c1ccc(F)cc1` [Compound 23a, [3-(4-Fluorophenyl)quinoxalin-2-yl](phenyl)methanone], the melting point was in the range of 94.1 to 96.6 °C. For the same compound, the inhibition at 1 µM in data set [4] (setting [10]) was 34.2 ± 5.12%. In addition, 10 µM produced 40.8 ± 2.58% inhibition in data set [4] (setting [9]). In addition, in data set [5], the viability at 72 h, 20 µM was determined as 98.6 ± 5.68% and the viability at 72 h, 200 µM stood at 87.6 ± 5.75%.
`COc1ccc(C(=O)c2nc3ccccc3nc2-c2ccc(F)cc2)cc1` [Compound 23b, [3-(4-Fluorophenyl)quinoxalin-2-yl](4-methoxyphenyl)methanone] gave a melting point of 147.6 to 147.9 °C. The compound also gave an inhibition at 1 µM in data set [4] (setting [10]) of 16.4 ± 3.11%. The compound further displayed an inhibition at 10 µM in [4] (setting [9]) of 33.6 ± 4.21%. In data set [5], the viability at 72 h, 20 µM was determined as 104 ± 1.85% and the viability at 72 h, 200 µM was 103.3 ± 1.03%.
In turn, `O=C(c1ccccc1)c1nc2cc(Cl)c(Cl)cc2nc1-c1ccc(F)cc1` [Compound 24a, (6,7-Dichloro-3-(4-fluorophenyl)quinoxalin-2-yl)(phenyl)methanone] returned a melting point of 184.3 to 186.4 °C. Further, in data set [4] (setting [10]), the inhibition at 1 µM was determined as 2.54 ± 1.21%. This compound also yielded an inhibition at 10 µM in data set [4] (setting [9]) of 23.5 ± 3.71%. For the same compound, in data set [5], the viability at 72 h, 20 µM came out at 106 ± 2.12% and the viability at 72 h, 200 µM turned out to be 91.9 ± 2.83%.
`COc1ccc(-c2nc3ccccc3nc2C(=O)c2ccccc2)cc1` [Compound 25a, [3-(4-Methoxyphenyl)quinoxalin-2-yl](phenyl)methanone] came in with a melting point of 93.9 to 98.2 °C. The compound further showed an inhibition at 1 µM in [4] (setting [10]) of 40.4 ± 2.22%. The same compound gave an inhibition at 10 µM in [4] (setting [9]) of 47.5 ± 3.51%. In data set [5], the viability at 72 h, 20 µM is 101 ± 2.39% and the viability at 72 h, 200 µM is 100 ± 4.59%.
`COc1ccc(C(=O)c2nc3ccccc3nc2-c2ccc(OC)cc2)cc1` [Compound 25b, (4-Methoxyphenyl)[3-(4-methoxyphenyl)quinoxalin-2-yl]methanone]: the melting point was in the range of 144.5 to 146.2 °C. The compound also had an inhibition at 1 µM in data set [4] (setting [10]) of 41.5 ± 3.25%. The compound also returned an inhibition at 10 µM in data set [4] (setting [9]) of 49.7 ± 4.38%. Also, in [5], the viability at 72 h, 20 µM was found to be 107 ± 3.03% and the viability at 72 h, 200 µM amounted to 99.4 ± 2.14%.
In turn, `COc1ccc(-c2nc3cc(Cl)c(Cl)cc3nc2C(=O)c2ccccc2)cc1` [Compound 26a, [6,7-Dichloro-3-(4-methoxyphenyl)quinoxalin-2-yl](phenyl)methanone] came in with a melting point of 173.9 to 174.3 °C. In addition, the inhibition at 1 µM in [4] (setting [10]) came to 1.95 ± 0.82%. This compound also yielded an inhibition at 10 µM in [4] (setting [9]) of 14.5 ± 2.55%. In addition, in data set [5], the viability at 72 h, 20 µM was determined as 99.4 ± 6.5% and the viability at 72 h, 200 µM was determined as 35.3 ± 4.95%.
On to `COc1ccc(C(=O)c2nc3cc(Cl)c(Cl)cc3nc2-c2ccc(OC)cc2)cc1` [Compound 26b, [6,7-Dichloro-3-(4-methoxyphenyl)quinoxalin-2-yl](4-methoxyphenyl)methanone], for which the melting point lay in the range of 178.8 to 179 °C. For the same compound, in [4] (10 μM), the “anti-DENV activity in words” value is “inactive”. The same compound registered an inhibition at 1 µM in data set [4] (setting [10]) of 1.17 ± 0.41%. Besides, testing at 10 µM in [4] (setting [9]) gave an inhibition of 19.3 ± 3.85%. In data set [5], the viability at 72 h, 20 µM was 104 ± 4.22% and the viability at 72 h, 200 µM amounted to 99.1 ± 2.4%.
`O=C(c1ccc(O)cc1)c1nc2ccccc2nc1-c1ccccc1` [Compound 27, (4-Hydroxyphenyl)(3-phenylquinoxalin-2-yl)methanone] came in with a melting point of 196.5 to 199.3 °C. In [4] (setting [10]), this compound came in with an inhibition at 1 µM of 44.9 ± 3.68%. In [4] (setting [9]), the inhibition at 10 µM was found to be 48.7 ± 3.48%. Besides, in data set [5], the viability at 72 h, 20 µM is 102 ± 2.84% and the viability at 72 h, 200 µM came out at 18.4 ± 2.33%.
For `NC(=O)c1ncn([C@@H]2O[C@H](CO)[C@@H](O)[C@H]2O)n1` [Ribavirin], the “SI (selectivity index, CC50/EC50)” value in [4] stood at 4.47. In addition, the EC50 was 12.6 ± 1.17 µM in data set [4] (mean ± SD) and 12.6 µM in data set [3]. The “DENV2 % Inhibition at 1 μM” value in [7] (1 μM) was 10.14 ± 1.98%. For the same compound, the “DENV2 % Inhibition at 10 μM” value in data set [7] (10 μM) was 32.53 ± 2.30%. For the same compound, the CC50 at 72 h in data set [5] was determined as 56.3 ± 2.32 µM. The “Huh-7 Cell % viability at 20 μM” value in [8] (20 μM) is 71.37 ± 1.31%. Moreover, the “Huh-7 Cell % viability at 200 μM” value in [8] (200 μM) is 14.36 ± 2.14%.
